# Read-outs that look alike come from different tables or passages of the source.
# Assays:
# [1] = format: physicochemical
# Text: UV-Visible Absorption Spectra vs. pH: EGCG solutions undergo an immediate spectral absorption shift as the pH increases from acidic to alkaline, with a change noted at pH 7 when a peak at 320 nm appears and the dominant phenol peak at 272 nm begins to decrease (FIG. 3A). The 320 nm peak likely represents the absorbance of the quinone form of EGCG. […] However, if the alkaline solution is re-acidified within minutes, the reaction is reversible. […] EPR vs. pH study of EGCG: The EPR and UV-visible spectra of EGCG, stabilized with 0.2 M MgCl2, were measured as a function of pH (i.e., 6.03, 6.54, 7.03, 7.57, 8.09, 8.56, 9.10, 9.56). A corresponding increase in a peak at ˜314 nm and a g=2 EPR spectrum occurred with increasing pH. […] This is in agreement with the known stabilizing effect on semiquinone free radicals by divalent cations like Mg^+2. […] The multiple peaks and valleys in FIGS. 5a and 5b are the fine structure detail of a high concentration radical solution. EPR detects unpaired spinning electrons due to the absorption of microwaves in an applied magnetic field. The peak splitting is due to interaction of the lone electron's spin magnetic field with environmental magnetic fields. […]
# [2] = cited from earlier work
# [3] = tested on: HSV-1 (herpes simplex 1); assay: Antiviral drug screen of EGCG, HSV-1; format: cell-based
# [4] = format: physicochemical; remark: listed apart in the source
# Text: An electrochemical cell was fabricated using a fine porosity glass frit in one-inch-diameter glass tubing. The electrochemical cell houses the counter electrode and keeps the Ag/AgCl reference electrode and platinum working electrode separate from the counter electrode. This addition to the system allowed the preparation of bulk solution. The working electrode and reference electrode compartment was continuously stirred using a small stir bar and a magnetic stirrer to minimize gradient effects at the working electrode. The EGCG solutions were oxidized using a positive potential to a visual end point. UV-visible spectral data were collected during these experiments, including the absorbance at 270 nm and 320 nm, corresponding to the phenol and quinone forms of EGCG, respectively. In addition, the open cell potential was recorded as experiments progressed. The active redox potentials and experimental endpoints were determined based on current and visual color changes to oligomers. Due to solution evaporation over time, the ratio of absorbance at 320 nm divided by the absorbance at 270 nm was determined in order to account for overall absorption increases. […] In addition, the visual change in solution color from clear to yellow and pink was also monitored as an indicator of degree of oxidation. Stirred EGCG solutions in 0.1 M phosphate buffer with 0.1 M KCl at pH 6.0 were monitored. The open circuit potential was initially 220 mV. […] A duplicate solution was left uncovered on the table next to the electrochemical cell as the control. After seven hours, no change in either solution at 270 and 320 nm was found. At this point the experimental potential was increased to 1000 mV for a further 16 hours (Table 3A). […] The pH of the solutions remained 6.0 throughout the experiment. All data support the forced oxidation of EGCG at pH 6.0. Solutions were allowed to sit for two more days to observe the stability of the electrochemically-induced changes (Table 3C). Solutions were pH-modified following electrochemical oxidation to observe stability. […] These samples were open to air, and no other precautions were taken to prevent oxidation by atmospheric oxygen.
# [5] = tested on: host cells
# [6] = cyclic voltammetry (Kilmartin and Hsu, 2003)
# [7] = Control (no potential), pH 6.0, 43 hours
# [8] = Control (no potential), pH 6.0, 55 hours
# [9] = Control (no potential), pH 6.0, 68 hours
# [10] = Control (no potential, uncovered), pH 6.0, 23 hours
# [11] = Experiment, pH 6.0, 800 mV 7 h then 1000 mV 16 h, 23 hours
# [12] = Experiment, pH 6.0, 1500 mV from 23 h, 43 hours
# [13] = Experiment, pH 6.0, 1500 mV from 23 h, 55 hours
# [14] = Experiment, pH 6.0, 1500 mV from 23 h, 68 hours
# [15] = Experiment, pH 6.0, left to sit after electrochemical oxidation, 73 hours
# [16] = Experiment, pH 6.0, left to sit after electrochemical oxidation, 79 hours
# [17] = Experiment, pH 6.0, left to sit after electrochemical oxidation, 120 hours
structure (smiles),measurement,setting,value
"O=C(O[C@@H]1Cc2c(O)cc(O)cc2O[C@@H]1c1cc(O)c(O)c(O)c1)c1cc(O)c(O)c(O)c1 [EGCG, (−)-Epigallocatechingallate]",Stability of 320 nm oxidation peak,[1],disappears within hours
same,Decay time of semiquinone EPR signal,"[1]; after basification, 0.2 M MgCl2, no electrochemical modulation",30 min
same,"Oxidation peak potential, first range",[2]; [6],105 mV
same,"Oxidation peak potential, second range",[2]; [6],213 mV
same,Reduction potential,"[2]; pH 7, versus a normal hydrogen electrode",430 mV
same,EC-50,[3]; HSV-1,24.1 µg/mL
same,EC-90,[3]; HSV-1,121 µg/mL
same,CC-50,[3]; cytotoxicity in HSV-1 screen,857 µg/mL
same,"Open circuit potential, initial","[4]; 0.1 M phosphate buffer with 0.1 M KCl, pH 6.0",220 mV
same,320 nm/270 nm,[4]; [7],0.174
same,Absorbance 270 nm,[4]; [7],0.448
same,Absorbance 320 nm,[4]; [7],0.078
same,320 nm/270 nm,[4]; [8],0.178
same,Absorbance 270 nm,[4]; [8],0.471
same,Absorbance 320 nm,[4]; [8],0.084
same,320 nm/270 nm,[4]; [9],0.189
same,Absorbance 270 nm,[4]; [9],0.438
same,Absorbance 320 nm,[4]; [9],0.083
same,320 nm/270 nm,[4]; [10],0.170
same,Absorbance 270 nm,[4]; [10],0.424
same,Absorbance 320 nm,[4]; [10],0.072
same,320 nm/270 nm,[4]; [11],0.256
same,Absorbance 270 nm,[4]; [11],0.418
same,Absorbance 320 nm,[4]; [11],0.107
same,320 nm/270 nm,[4]; [12],0.396
same,Absorbance 270 nm,[4]; [12],0.432
same,Absorbance 320 nm,[4]; [12],0.171
same,320 nm/270 nm,[4]; [13],0.467
same,Absorbance 270 nm,[4]; [13],0.422
same,Absorbance 320 nm,[4]; [13],0.197
same,320 nm/270 nm,[4]; [14],0.522
same,Absorbance 270 nm,[4]; [14],0.429
same,Absorbance 320 nm,[4]; [14],0.224
same,320 nm/270 nm,[4]; [15],0.533
same,Absorbance 270 nm,[4]; [15],0.430
same,Absorbance 320 nm,[4]; [15],0.229
same,320 nm/270 nm,[4]; [16],0.538
same,Absorbance 270 nm,[4]; [16],0.426
same,Absorbance 320 nm,[4]; [16],0.229
same,320 nm/270 nm,[4]; [17],0.546
same,Absorbance 270 nm,[4]; [17],0.436
same,Absorbance 320 nm,[4]; [17],0.238
same,Stability of electrochemically oxidized solution (320 nm absorbance),[4]; pH 6,stable for over two days
same,Oxidation of control sample,"[4]; pH 6.0, no potential, uncovered, 23 hours",did not oxidize
same,Stability of pH-modified solution after electrochemical oxidation (FIG. 14),[4]; pH 6.26,relatively stable after 7 days
same,"CC50, TOXICITY Neutral Red Uptake",[5],CC50 > 200
